Consider two molecules from patent EP1944022A1, “PHARMACEUTICAL COMPOSITIONS COMBINING […] ANTICONVULSANT AGENTS FOR THE TREATMENT OF CHRONIC AND ACUTE PAIN” (ESPINOZA ABDALA, Leopoldo de Jesús, priority 2005, dated 2007).

The test system of the test is nociceptive pain. Nature of the test: uric acid-induced knee joint inflammation and pain in rats, recovery of Functionality Ratio (AUC over 4 hours). The class given is in vivo, female Wistar rats. Conditions: rat. Here is the method: An experimental preclinical study was performed that compares the analgesic effect of tramadol and gabapentin administered individually and in combination, using female Wistar rats weighting from 160 to 180 g, which were intraarticularly injected 0.05 ml uric acid suspended in mineral oil into knee joint of left hindleg under anesthesia in order to cause inflammation and pain. An electrode was connected at the plantar region of hindlegs. The rats were placed in a roller of 30 cm of diameter rotating at 4 rpm during two-minute periods. The time of contact between each electrode of the rats' hindlegs and the roller was registered. The data are expressed as Functionality Ratio (FR). […] At the same time the medicaments, alone or in combination, were administered, and the Functionality Ratio every 30 minutes for 4 hours was determined. […]
Doses used for the combination were 3.16, 5.62, 10.0 or 17.78, 31.62, 56.23, 100.0 mg/kg of tramadol and those used for gabapentin were 31.6, 56.2, 100.0, 177.8, 316.2 mg/kg. Thus, the possible synergistic interaction (a total of 24 combinations) was analyzed.
The synergism between gabapentin and tramadol was calculated with the synergistic interaction surface analysis and an isobolographic method (Tallarida et al., 1989). The area under the curve (AUC) was calculated for each of the combinations and for each of the components.

In the case of `COc1cccc(C2(O)CCCCC2CN(C)C)c1` (mixture of isomers) [tramadol, (±) cis-2-[(dimethylamino)methyl]-1-(3-metoxyphenyl) cyclohexanol], the “total analgesic effect, area under the curve (AUC)” value (in vivo) is reported as 207.7 ± 24.7 area units. Turning to `NCC1(CC(=O)O)CCCCC1` [Gabapentin], the “total analgesic effect, area under the curve (AUC)” value (gabapentin alone 316.2 mg/kg, 4-hours observation period) was determined as 121.5 ± 30.3 area units.
